Data: ChEMBL document CHEMBL1938248, “Symmetric dimers of ent-kaurane diterpenoids with cytotoxic activity from Croton tonkinensis” (Bioorg Med Chem Lett, 2012)

Columns and labels:
Format in all cases: functional, cell-based
MCF7 [1] = test: Cytotoxicity against human MCF7 cells by WST-1 assay
MCF7 [2] = test: Cytotoxicity against human tamoxifen-resistant MCF7 cells by WST-1 assay
MDA-MB-231 = test: Cytotoxicity against human MDA-MB-231 cells by WST-1 assay
[3] = Cytotoxicity against human MCF7/ADR cells by WST-1 assay; conditions: NCI/ADR-RES

Compound	IC50 (MCF7 [1])	IC50 (MCF7 [2])	IC50 (MDA-MB-231)	IC50 [3]
CC[C@@]1(O)C(=O)OCc2c1cc1n(c2=O)Cc2cc3ccccc3nc2-1 [CAMPTOTHECIN]	2.6 µM	1.8 µM	2.7 µM	0.8 µM
C[C@]1(CO)CCC[C@]2(C)[C@@H]1C[C@@H](O)[C@@]13C[C@H](CC[C@@H]21)[C@@](O)(CC[C@@]1(O)C(=O)[C@]24C[C@@H]1CC[C@H]2[C@]1(C)CCC[C@](C)(CO)[C@H]1C[C@H]4O)C3=O [CROTONKINENSIN C]	> 30 µM	> 30 µM	> 30 µM	> 30 µM
CC(=O)OC[C@@]1(C)CCC[C@]2(C)[C@@H]1C[C@@H](O)[C@@]13C[C@H](CC[C@@H]21)[C@@](O)(CC[C@@]1(O)C(=O)[C@]24C[C@@H]1CC[C@H]2[C@]1(C)CCC[C@](C)(COC(C)=O)[C@H]1C[C@H]4O)C3=O [CROTONKINENSIN D]	9.4 µM	2.6 µM	22 µM	18.9 µM
COc1cccc2c1C(=O)c1c(O)c3c(c(O)c1C2=O)C[C@@](O)(C(=O)CO)C[C@@H]3O[C@H]1C[C@H](N)[C@H](O)[C@H](C)O1 [DOXORUBICIN]	–	–	–	83.2 µM
